# Experimental data taken from patent US7951844B2, “Tranquilizer and functional food” (J-Oil Mills, Inc., priority 2007, dated 2011).
# Where a name gives a salt, the structure may show the parent alone.
# Experiments:
# [1] = MK-7 originating from fermented soybeans taken, compared with MK-4 taken directly (Ozaki et al. 2006); cited from earlier work
# fear-conditioned mice [2] = assay: fear condition-induced akinesia time (conditioned-fear measurement system); format: in vivo, mouse; conditions: for akinesia time (for every 60 seconds) compared to the control group, two-way analysis of variance: 30 mg/kg oral for 7 days, P<0.01 (menaquinone-4), P<0.05 (menaquinone-7); for akinesia time (% of freezing), period from 0 to 60 seconds / akinesia time (% of freezing), period from 180 to 240 seconds: male C57BL/6 mice, 30 mg/kg oral forced feeding for 7 days, measured 2 h after final administration, mean of 10 mice
# Text: A stimulus from the outside enters the brain through the sense organs, and is sent to the amygdaloid body and the hippocampus-lateral septum system, where it is judged if the stimulus is beneficial or harmful. (The judgment is referred to as “biological value evaluation”). The information that has been evaluated is stored in the amygdaloid body and the hippocampus. At the same time, biological response occurs, and biological response is visually recognized by an observer as emotional expression. A human and an animal learn (acquire) information on the biological value evaluation they gained through their experiences. When they receive the same stimulus, the stimulus is compared in the amygdaloid body and the hippocampus-lateral septum system. The response that occurs at the time is referred to as “conditioned emotional response”. Assume that a rat or mouse is put into a specified box and an electric stimulus it hates is applied to the rat or mouse. […] The akinesia is referred to as “condition-induced akinesia”. Currently, an animal model for evaluating anti-anxiety and anti-depression effects is widely used while using decrease of akinesia time as an index.
# Whether the tranquilizer of the invention has a similar effect as a commercially-available anti-depressant was examined using said anxiety evaluation system. Specifically, fear-conditioned mice were fed through forced feeding a sample consisting of vitamin K and medium, or a control sample consisting of medium only, respectively, for 7 days. The effect of each sample was examined on the akinesia time of mice.
# Menaquinone-4 and menaquinone-7 as vitamin K to be used as an active ingredient of an anti-anxiety agent of the invention were purchased from Wako Pure Chemical Industries, Ltd. After the given amounts of menaquinone-4 or menaquinone-7 were weighed, they were suspended in 0.5% MC so that a certain concentration is acquired. The control group was fed with only the medium (0.5% MC).
# (§1) 10-week old male mice (C57BL/6NCrlCrlj, SPF grade) were purchased from Charles River Laboratories Japan. After 5-day quarantine period and subsequent 5-day acclimatization, weight measurement and observation of the general condition were conducted once a day.
# A solid feed (ANG93G, Oriental Yeast Co., Ltd.) was placed in the feeder, and the mice were allowed to freely take the feed. The mice were allowed to freely drink water using a water bottle. The samples were orally administered through forced feeding in accordance specified method, using a disposable syringe made of polypropylene (manufactured by Terumo Corporation, Japan) attached with a disposable feeding needle for mouse (manufactured by Fuchigami kikai Ltd.). The sample was administered while it was stirred with a stirrer. The sample was administered so that the administration quantity of Vitamin K was 30 mg per kg in weight. The administration amount of liquid was calculated based on 10 ml/kg based using the weight on the date of administration.
# (§2) The general conditions and death of a mouse were observed once a day before the administration. The weights were measured once a day before administration. A conditioned-fear measurement system (manufactured by ActiMetrics) was used for measuring electric stimulus and akinesia time. After the mice allocated to the individual groups were placed in the conditioned-fear measurement system, electric stimulus was applied for fear conditioning and the akinesia time was measured simultaneously. Electric stimulus of 0.3 mA for one second in every 15 seconds was applied for 240 seconds. Upon completion of the electric stimulus, the sample was administered to the mice. After 7-day administration, the mice in the control group (0.5% MC) and in the vitamin K-administered groups were placed again in the conditioned-fear measurement system at 2 hours or 2 hours and 1 minute after the final administration, and the akinesia time in 4 minutes was measured under the condition without electric stimulus being applied. […]
# [3] = general conditions, death and weights during 7-day administration; format: in vivo, mouse; conditions: mice, 30 mg/kg oral for 7 days, compared with control group (0.5% MC)
# Protocol: as §1
# A solid feed (ANG93G, Oriental Yeast Co., Ltd.) was placed in the feeder, and the mice were allowed to freely take the feed. The mice were allowed to freely drink water using a water bottle. […] The sample was administered so that the administration quantity of Vitamin K was 30 mg per kg in weight. The administration amount of liquid was calculated based on 10 ml/kg based using the weight on the date of administration.
# as §2, with “A conditioned-fear measurement system (manufactured by ActiMetrics) was used for measuring electric stimulus and akinesia time.” left out, “Electric stimulus of 0.3 mA for one second in every 15 seconds was applied for 240 seconds. Upon completion of the electric stimulus, the sample was administered to the mice.” left out
# fear-conditioned mice [4] = conditions: 7-day oral administration of 30 mg/kg; cited from earlier work
SMILES,MK-4 in the brain [1],"akinesia time (for every 60 seconds) compared to the control group, two-way analysis of variance (fear-conditioned mice [2])","akinesia time (% of freezing), period from 0 to 60 seconds (fear-conditioned mice [2]) [%]","akinesia time (% of freezing), period from 180 to 240 seconds (fear-conditioned mice [2]) [%]",weights through the administration period [3],condition-induced akinesia (fear-conditioned mice [4])
CC(C)=CCC/C(C)=C/CC/C(C)=C/CC/C(C)=C/CC/C(C)=C/CC/C(C)=C/CC/C(C)=C/CC1=C(C)C(=O)c2ccccc2C1=O [menaquinone-7],increases in the brain more remarkably,significant decreases in the akinesia time were observed,38.84,20.83,remained substantially constant,
CC(C)=CCC/C(C)=C/CC/C(C)=C/CC/C(C)=C/CC1=C(C)C(=O)c2ccccc2C1=O [menaquinone-4],,significant decreases in the akinesia time were observed,31.99,22.29,remained substantially constant,
CCN(CC)C(=O)C1(c2ccccc2)CC1CN (stereo not shown) [milnacipran hydrochloride],,,,,,akinesia is alleviated
